Measured values reported in patent US9833497B2, “Human originated EGF domain proteins and use of the same” (CHENGDU SOURCEBIO LIMITED-LIABILITY COMPANY, priority 2013, dated 2017).

Key:
Format in all cases: cell-based
[1] = tested on: Aeromonas hydrophila; experiment: MIC against Gram-negative bacteria: Aeromonas hydrophila; conditions: 5×10^5 CFU/mL; for MIC (μg/mL) A. hydrophila: Aeromonas hydrophila
Procedure, shortened: (§1)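 Inocula prepared by growing LB cultures at 37° C to 0.5 McFarland, centrifuging at 4000×g, and resuspending in fresh medium. Final density 5×10^5 CFU/mL per well with two-fold dilutions of purified EGF domain protein; shaking incubation at 37° C.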

[2] = tested on: E. coli BL21; experiment: MIC against Gram-negative bacteria: E. coli BL21; conditions: 5×10^5 CFU/mL
Procedure, shortened: as §1

[3] = tested on: Pseudomonas aeruginosa; experiment: MIC against Gram-negative bacteria: Pseudomonas aeruginosa; conditions: 5×10^5 CFU/mL; for MIC (μg/mL) P. aeruginosa: Pseudomonas aeruginosa
Procedure, shortened: as §1

[4] = tested on: Citrobacter diversus; experiment: MIC against Gram-negative bacteria: Citrobacter diversus; conditions: 5×10^5 CFU/mL; for MIC (μg/mL) C. diversus: Citrobacter diversus
Procedure, shortened: as §1

[5] = tested on: Enterobacter cloacae; experiment: MIC against Gram-negative bacteria: Enterobacter cloacae; conditions: 5×10^5 CFU/mL; for MIC (μg/mL) E. cloacae: Enterobacter cloacae
Procedure, shortened: as §1

[6] = tested on: Klebsiella pneumonia; experiment: MIC against Gram-negative bacteria: Klebsiella pneumonia; conditions: 5×10^5 CFU/mL; for MIC (μg/mL) K. pneumonia: Klebsiella pneumonia
Procedure, shortened: as §1

[7] = tested on: E. coli DH5α; experiment: Antibacterial activity: MIC and growth curve against E. coli DH5α in 96-well plate; conditions: minimal inhibitory concentration against E. coli DH5α; 96-well plate, 5×10^5 CFU/mL, 37° C., judged after 8 h
Procedure, shortened: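 MIC taken as lowest protein level with no bacterial growth, tracked by A600 every 30 min during 37 °C, 175 rpm culture. Two-fold protein series 50-12.5 μg/mL final, triplicate wells, against 5×10^5 CFU/mL of LB-washed mid-log cells.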

[8] = tested on: Serratia marcescens; experiment: MIC against Gram-negative bacteria: Serratia marcescens; conditions: 5×10^5 CFU/mL; for MIC (μg/mL) S. marcescens: Serratia marcescens
Procedure, shortened: as §1

[9] = tested on: Proteus mirabilis; experiment: MIC against Gram-negative bacteria: Proteus mirabilis; conditions: 5×10^5 CFU/mL; for MIC (μg/mL) P. mirabilis: Proteus mirabilis
Procedure, shortened: as §1

[10] = tested on: Proteus vulgaris; experiment: MIC against Gram-negative bacteria: Proteus vulgaris; conditions: 5×10^5 CFU/mL; for MIC (μg/mL) P. vulgaris: Proteus vulgaris
Procedure, shortened: as §1

[11] = tested on: Moraxella catarrhalis; experiment: MIC against Gram-negative bacteria: Moraxella catarrhalis; conditions: 5×10^5 CFU/mL; for MIC (μg/mL) M. catarrhalis: Moraxella catarrhalis
Procedure, shortened: as §1

[12] = 10 h cultivation at 37° C., two-fold serial dilution

## PRT45 (SINSCPNNCSGHGKCTTSVSVPSQVYCECDKYWKGEACD; listed as Homo sapiens)
[1]; 96-well plate, 37° C., 10 h
  MIC (μg/mL) A. hydrophila: 25 µg/mL
[2]; 96-well plate, 37° C., 10 h
  MIC (μg/mL) E. coli BL21: 25 µg/mL
[3]; 96-well plate, 37° C., 10 h
  MIC (μg/mL) P. aeruginosa: 12.5 µg/mL
[4]; 96-well plate, 37° C., 10 h
  MIC (μg/mL) C. diversus: 12.5 µg/mL
[5]; 96-well plate, 37° C., 10 h
  MIC (μg/mL) E. cloacae: 50 µg/mL
[6]; 96-well plate, 37° C., 10 h
  MIC (μg/mL) K. pneumonia: 25 µg/mL
[7]
  MIC: 50 µg/mL
[8]; 96-well plate, 37° C., 10 h
  MIC (μg/mL) S. marcescens: 50 µg/mL
[9]; 96-well plate, 37° C., 10 h
  MIC (μg/mL) P. mirabilis: 50 µg/mL
[10]; 96-well plate, 37° C., 10 h
  MIC (μg/mL) P. vulgaris: 12.5 µg/mL
[11]; 96-well plate, 37° C., 10 h
  MIC (μg/mL) M. catarrhalis: 25 µg/mL

## PRT1061 (KRDPCLRKYKDFCIHGECKYVKELRAPSCICHPGYHGERCH; listed as Homo sapiens)
[1]; [12]
  MIC A. hydrophila: 12.5 µg/mL
[2]; [12]
  MIC E. coli BL21: 12.5 µg/mL
[3]; [12]
  MIC P. aeruginosa: 12.5 µg/mL
[4]; [12]
  MIC C. diversus: 12.5 µg/mL
[5]; [12]
  MIC E. cloacae: 12.5 µg/mL
[6]; [12]
  MIC K. pneumonia: 12.5 µg/mL
[7]
  MIC: 12.5 µg/mL
[8]; [12]
  MIC S. marcescens: 25 µg/mL
[9]; [12]
  MIC P. mirabilis: 25 µg/mL
[10]; [12]
  MIC P. vulgaris: 12.5 µg/mL
[11]; [12]
  MIC M. catarrhalis: 50 µg/mL

## PRT18 (CQCNPHGSYGGTCDPATGQCSCRPGVGGLRCDRCEPGFWNFRGIVTDGRSGCTP; listed as Homo sapiens)
[1]; 96-well plate, 37° C., 10 h
  MIC (μg/mL) A. hydrophila: 25 µg/mL
[2]; 96-well plate, 37° C., 10 h
  MIC (μg/mL) E. coli BL21: 50 µg/mL
[3]; 96-well plate, 37° C., 10 h
  MIC (μg/mL) P. aeruginosa: 25 µg/mL
[4]; 96-well plate, 37° C., 10 h
  MIC (μg/mL) C. diversus: 12.5 µg/mL
[5]; 96-well plate, 37° C., 10 h
  MIC (μg/mL) E. cloacae: 50 µg/mL
[6]; 96-well plate, 37° C., 10 h
  MIC (μg/mL) K. pneumonia: 100 µg/mL
[7]
  MIC: 12.5 µg/mL
[8]; 96-well plate, 37° C., 10 h
  MIC (μg/mL) S. marcescens: 12.5 µg/mL
[9]; 96-well plate, 37° C., 10 h
  MIC (μg/mL) P. mirabilis: 25 µg/mL
[10]; 96-well plate, 37° C., 10 h
  MIC (μg/mL) P. vulgaris: 12.5 µg/mL
[11]; 96-well plate, 37° C., 10 h
  MIC (μg/mL) M. catarrhalis: 12.5 µg/mL

## PRT685 (DVNECLEGDFCFPHGECLNTDGSFACTCAPGYRPGPRGASCL; listed as Homo sapiens)
[1]; 96-well plate, 37° C., 10 h
  MIC A. hydrophila: 50 µg/mL
[2]; 96-well plate, 37° C., 10 h
  MIC E. coli BL21: 25 µg/mL
[3]; 96-well plate, 37° C., 10 h
  MIC P. aeruginosa: 12.5 µg/mL
[4]; 96-well plate, 37° C., 10 h
  MIC C. diversus: 12.5 µg/mL
[5]; 96-well plate, 37° C., 10 h
  MIC E. cloacae: 12.5 µg/mL
[6]; 96-well plate, 37° C., 10 h
  MIC K. pneumonia: 50 µg/mL
[7]
  MIC: 50 µg/mL
[8]; 96-well plate, 37° C., 10 h
  MIC S. marcescens: 50 µg/mL
[9]; 96-well plate, 37° C., 10 h
  MIC P. mirabilis: 25 µg/mL
[10]; 96-well plate, 37° C., 10 h
  MIC P. vulgaris: 50 µg/mL
[11]; 96-well plate, 37° C., 10 h
  MIC M. catarrhalis: 50 µg/mL

## PRT1105 (EIDECWSQPCLNGATCQDALGAYFCDCAPGFLGDHCE; listed as Homo sapiens)
[1]; [12]
  MIC A. hydrophila: 25 µg/mL
[2]; [12]
  MIC E. coli BL21: 25 µg/mL
[3]; [12]
  MIC P. aeruginosa: 50 µg/mL
[4]; [12]
  MIC C. diversus: 12.5 µg/mL
[5]; [12]
  MIC E. cloacae: 50 µg/mL
[6]; [12]
  MIC K. pneumonia: 12.5 µg/mL
[7]
  MIC: 12.5 µg/mL
[8]; [12]
  MIC S. marcescens: 50 µg/mL
[9]; [12]
  MIC P. mirabilis: 50 µg/mL
[10]; [12]
  MIC P. vulgaris: 12.5 µg/mL
[11]; [12]
  MIC M. catarrhalis: 25 µg/mL

## PRT596 (CDCDPRTSQSSHCDQLTGQCPCKLGYGGKRCSECQENYYGDPPGRCIP; listed as Homo sapiens)
[1]; 96-well plate, 37° C., 10 h
  MIC A. hydrophila: 25 µg/mL
[2]; 96-well plate, 37° C., 10 h
  MIC E. coli BL21: 25 µg/mL
[3]; 96-well plate, 37° C., 10 h
  MIC P. aeruginosa: 50 µg/mL
[4]; 96-well plate, 37° C., 10 h
  MIC C. diversus: 50 µg/mL
[5]; 96-well plate, 37° C., 10 h
  MIC E. cloacae: 12.5 µg/mL
[6]; 96-well plate, 37° C., 10 h
  MIC K. pneumonia: 25 µg/mL
[7]
  MIC: 12.5 µg/mL
[8]; 96-well plate, 37° C., 10 h
  MIC S. marcescens: 50 µg/mL
[9]; 96-well plate, 37° C., 10 h
  MIC P. mirabilis: 12.5 µg/mL
[10]; 96-well plate, 37° C., 10 h
  MIC P. vulgaris: 25 µg/mL
[11]; 96-well plate, 37° C., 10 h
  MIC M. catarrhalis: 25 µg/mL
